Test systems include 786-0; A498; BT-549; CAKI-1; CCRF-CEM; COLO 205; DLD-1; EKVX; M14; MCF7; MDA-MB-231; MOLT-4; Malme-3M; NCI-H226; NCI-H522; OVCAR-8; PC-3; SK-MEL-28; SK-MEL-2; UACC-257.
Assay in all cases: inhibition of tumour cell growth, NCI panel, 48 h

SMILES strings stand for the structures.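 Cells were grown in 96-well plates and exposed to each compound for 48 hours at five concentrations; endpoints were interpolated linearly between bracketing concentrations, or set to the highest concentration if not reached. GI50 = concentration required for 50% inhibition of growth.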 Active and inactive are the calls of the source. No stated cut-off is given here; in the data, active = GI50 up to about 1.1 µM and inactive = higher. Where only a bound is given, the exact number is not on record here.

Turning to `NCCNc1ccc(NCCN)c2c1C(=O)c1c(O)ccc(O)c1C2=O`, the GI50 with 786-0 was 0.00459 µM (active); in the assay on A498, 0.0818 µM (active); with BT-549, 0.653 µM (active); in the assay on CAKI-1, 0.00711 µM (active); in the assay on CCRF-CEM, 0.00791 µM (active); with COLO 205 it was 1.08 µM (active). Also, the GI50 with DLD-1 is 0.0336 µM (active); in the assay with EKVX, 0.436 µM (active); in the assay on M14 it was 0.0149 µM (active); in the assay with MCF7, 0.00731 µM (active); with MDA-MB-231, 0.681 µM (active); in the assay on MOLT-4 it was < 0.001 µM (active). The GI50 with Malme-3M is 0.0671 µM (active); with NCI-H226, 0.0018 µM (active); with NCI-H522, 0.0324 µM (active); in the assay on OVCAR-8 it was 0.0158 µM (active); in the assay on PC-3, 0.205 µM (active); in the assay with SK-MEL-28, 1.07 µM (active). For the same molecule, the GI50 with SK-MEL-2 is 0.44 µM (active); in the assay with UACC-257, 1.06 µM (active).
As for `O=C[C@@H](CO)O[C@H](C=O)n1cnc2c(=O)nc[nH]c21`, the GI50 with 786-0 was 607 µM (inactive); with A498, 673 µM (inactive); in the assay with BT-549, 282 µM (inactive); in the assay on CAKI-1, 319 µM (inactive); with CCRF-CEM, 77.3 µM (inactive); in the assay with COLO 205, 288 µM (inactive). The GI50 in the assay on DLD-1 was 77.8 µM (inactive); with EKVX, 357 µM (inactive); in the assay on M14, 505 µM (inactive); with MCF7, 91.2 µM (inactive); with MDA-MB-231, 128 µM (inactive); with MOLT-4, 123 µM (inactive). Besides, the GI50 in the assay with Malme-3M was 301 µM (inactive); with NCI-H226, 583 µM (inactive); in the assay with NCI-H522, 146 µM (inactive); with OVCAR-8 it was 404 µM (inactive); in the assay with PC-3, 376 µM (inactive); in the assay with SK-MEL-28, 369 µM (inactive). Besides, the GI50 in the assay on SK-MEL-2 is 318 µM (inactive); in the assay with UACC-257 it was 378 µM (inactive).

The record behind these values is ChEMBL document CHEMBL1201862, “PubChem BioAssay data set” (2004).
